Measured values reported in patent publication US20100204249A1, “SECRETORY PHOSPHOLIPASE A2 (SPLA2) INHIBITOR AND NIACIN DRUG COMPOSITIONS AND METHODS FOR TREATING CARDIOVASCULAR DISEASE AND DYSLIPIDEMIA” (priority 2009, published 2010).

What was measured:
sPLA2 = conditions: cited from earlier work
[1] = test system: human subjects with stable CAD; test: Change in TG levels at eight weeks, A-002 and/or niacin drugs, subjects with stable CAD; conditions: for Baseline Mean TG: before trial period; for Baseline Mean TG / Week 8 Mean TG: stable CAD; for Difference versus placebo (TG % change) / % change versus baseline (TG) / Week 8 Mean TG: week 8; for % change versus baseline (TG): ANCOVA subject-specific percent change from baseline; for Change from baseline (mean TG): week 8 versus baseline
From the text: (§1) 46 subjects from the above once-a-day and twice-a-day A-002 studies were identified as receiving niacin drugs before and during the trial period. 45 of these 46 subjects were also receiving one or more statins before and during the trial period. The niacin drugs included niacin, nicotinic acid, acipimox, ERN (Niaspan®), Niaspan® in combination with lovastatin (Advicor®), and/or Niaspan® in combination with simvastatin (Simcor®). Of the 46 niacin subjects, twelve were concomitantly administered placebo rather than A-002 (i.e., niacin drug only), four were administered 100 mg of A-002 daily, five were administered 200 mg of A-002 daily, five were administered 250 mg of A-002 daily, thirteen were administered 500 mg of A-002 daily, and seven were administered 1000 mg of A-002 daily.
(§2) The change from baseline HDL and TG levels at eight weeks was determined for each of the subjects receiving niacin drugs, and the percentage increase or decrease in these levels was determined using an analysis of covariance (ANCOVA) model that calculated subject-specific percent change from baseline.

[2] = cited from earlier work
[3] = test system: human subjects with stable CAD; test: Change in HDL levels at eight weeks, A-002 and/or niacin drugs, subjects with stable CAD; conditions: for Baseline Mean HDL: before trial period; for Baseline Mean HDL / Week 8 Mean HDL: stable CAD; for Difference versus placebo (HDL % change) / % change versus baseline (HDL) / Week 8 Mean HDL: week 8; for % change versus baseline (HDL): ANCOVA subject-specific percent change from baseline; for Change from baseline (mean HDL): week 8 versus baseline
From the text: as §1, §2

[4] = test system: human subjects with stable CAD; conditions: oral, once or twice a day, total daily 100-1000 mg, all dosages tested; 361 subjects; cited from earlier work
[5] = eight weeks, magnitude of decrease

| Structure (SMILES) | type of sPLA2 inhibition (sPLA2) | Baseline Mean TG [1] | Difference versus placebo (TG % change) [1] | % change versus baseline (TG) [1] | Week 8 Mean TG [1] | Change from baseline (mean TG) [1] | terminal half-life (t1/2) ([2]; in vivo) | absorption and hydrolysis to the active A-001 molecule ([2]; prodrug) | Baseline Mean HDL [3] | decrease in HDL versus baseline [3, 5] | Difference versus placebo (HDL % change) [3] | % change versus baseline (HDL) [3] | Week 8 Mean HDL [3] | Change from baseline (mean HDL) [3] | serum LDL, LDL particle, small LDL particle, oxidized LDL, total cholesterol, ApoB, TG, sPLA2, CRP, and IL-6 levels [4] | increase in TG versus placebo ([1]; eight weeks, magnitude of increase) | decrease in HDL versus placebo [3, 5] |
| --- | --- | --- | --- | --- | --- | --- | --- | --- | --- | --- | --- | --- | --- | --- | --- | --- | --- |
| CCc1c(C(=O)C(N)=O)c2c(OCC(=O)O)cccc2n1Cc1ccccc1 [A-001] | competitive inhibitor |  |  |  |  |  |  |  |  |  |  |  |  |  |  |  |  |
| CCc1c(C(=O)C(N)=O)c2c(OCC(=O)OC)cccc2n1Cc1ccccc1 [A-002, [[3-(2-Amino-1,2-dioxoethyl)-2-ethyl-1-(phenylmethyl)-1H-indol-4-yl]oxy]acetic acid methyl ester] |  | 165.83 mg/dL | −2.6% | −3.7% | 159.04 mg/dL | -6.79 mg/dL | approximately ten | rapidly absorbed and hydrolyzed | 47.80 mg/dL | 2.0% | +0.3% | −2.0% | 46.28 mg/dL | -1.52 mg/dL | decrease |  |  |
| O=C(O)c1cccnc1 [Niacin, pyridine-3-carboxylic acid] |  | 129.25 mg/dL | +3.4% | +9.7% | 133.42 mg/dL | +4.17 mg/dl |  |  | 50.67 mg/dL | 6.2% | −3.9% | −6.2% | 46.75 mg/dL | -3.92 mg/dL |  | 3.4% | 3.9% |
